{
  "source": "patent US5866617A",
  "about": "“Formulations and methods of use 2,2'-dithio-bis-esthane sulfonate” (BioNumerik Pharmaceuticals, Inc., priority 1997, dated 1999)",
  "key": {"[1]": {"test_system": "rats", "details": "single i.p. dose of 3 mg cisplatin/kg, cited from earlier work"}, "[2]": {"details": "in vivo; cited from earlier work"}, "[3]": {"details": "human, in vivo, cited from earlier work"}, "[4]": {"details": "rat, in vivo, iv, 180 min; cited from earlier work"}, "[5]": {"test_system": "WARD colon cancer", "assay": "Antitumor activity in Fischer rats bearing subcutaneous WARD colon cancer", "format": "in vivo", "quoted_text": "Antitumor Response of Tumor Bearing Fischer Rats Treated with Parenteral Cisplatin (6 mg/kg or 9 mg/kg) and 2,2'-Dithio-Bis-Ethane Sulfonate (BNP7787 @ 1000 mg/kg)."}, "[6]": {"assay": "Body weight change in tumor bearing Fischer rats", "protocol": "FIG. 4. Weight Change in Tumor Bearing Fischer Rats Treated with Parenteral Cisplatin (6 mg/kg or 9 mg/kg) and 2,2'-Dithio-Bis-Ethane Sulfonate (BNP7787 @ 1,000 mg/kg).\nThe antitumor activity and toxicity, as measured by weight changes estimated by changes in tumor volumes and animal weights, respectively, of escalating doses of parenterally (intravenously) administered cisplatin (6 mg/kg and 9 mg/kg) with or without substantially contemporaneously intravenously administered BNP7787 (1000 mg/kg) was investigated in Fischer rats bearing subcutaneous established (~3.0 g) WARD colon cancer."}, "[7]": {"test_system": "Fischer rats", "assay": "Protection against cisplatin induced myelosuppression in Fischer rats (day 5 WBC)", "format": "in vivo", "details": "for deviation of mean WBC from untreated controls: day 5", "protocol": "FIG. 3. Total WBC Values on Day 5 Post Treatment with i.v. Cisplatin (6 mg/kg) With or Without Increasing Doses of i.v. 2,2'-Dithio-Bis-Ethane Sulfonate (BNP7787).\n(§1) The data from these studies are shown below in FIGS. 1 and 2. Under Good Laboratory Practice (GLP) conditions, Fischer rats (10 rats per treatment group) were treated with or without escalating doses of BNP7787 (up to 1000 mg/kg) administered by i.v. injection with a nephrotoxic dose of cisplatin (6 mg/kg). Serum BUN (FIG. 2) and Creatinine (FIG. 1) values were measured on day 5 and the animals were weighed daily. […] The mean day 5 WBC levels of rats treated with higher doses of 2,2'-dithio-bis-ethane sulfonate, namely the 333 mg/kg and 1,000 mg/kg treatment groups, are approximately 6,800 and 6,200, respectively. These mean WBC values are within 15% of the WBC values for untreated controls. The day 5 mean WBC counts for the cisplatin only and low dose (37 mg/kg) 2,2'-dithio-bis-ethane sulfonate treatment groups are approximately 4,800 and 4,500, respectively and represent a 32% to 36% reduction in the day 5 mean WBC from the untreated control group. The Fischer rat model is highly correlated with cisplatin induced nephrotoxicity in humans and is thus an excellent animal model to support the utility of 2,2'-dithio-bis-ethane sulfonate to protect against cisplatin induced nephrotoxicity in humans."}, "[8]": {"test_system": "cancer patients", "details": "cited from earlier work"}, "[9]": {"assay": "Stability of 2,2'-dithio-bis-ethane sulfonate in acidic and basic aqueous media (proton NMR)", "format": "physicochemical", "protocol": "The stability of 2,2'-dithio-bis-ethane sulfonate at room temperature was determined at pH ranges of 1.5 to 9.0.\nThe stability of 2,2'-dithio-bis-ethane sulfonate in acidic and basic aqueous media can be studied as described in this example. In a typical experiment, 50 mg of 2,2'-dithio-bis-ethane sulfonate (as produced by using the above described method) was dissolved in one ml of water and the pH of the solution adjusted to 1.5, 2.0, 3.0, 4.0, 5.0 and 6.0 by adding 1N hydrochloric acid in water or the pH adjusted to 8.0, 9.0, 10.0 or 11.0 by adding 1N sodium hydroxide in water. The reaction mixture was then stirred for 24 hours at room temperature, the water was removed at reduced pressure, dissolved in spectral grade D2 O, and the proton NMR spectrum was recorded.\nThe stability of 2,2'-dithio-bis-ethane sulfonate at pH 1.5 is further studied by heating the reaction mixture to 100 degrees Celsius for 10 minutes."}, "[10]": {"assay": "physchem", "details": "water", "quoted_text": "In this example, 10 grams of the disodium salt of 2,2'-dithio-bis-ethane sulfonate was dissolved in 50 ml of sterile HPLC grade water and the pH of the solution was readjusted to a pH of 7.0 using 1N hydrochloric acid. The resulting solution was then passed through a 0.2 micron syringe filter into an autoclaved round bottom flask (250 ml). This sterile solution was then freeze dried (lyophilized) to a white crystalline powder. The lyophilized powder was then used for the following solubility studies.\n1 ml of sterile HPLC grade water was distributed in each of ten sterilized 10 ml vials. […] Each vial was first observed at room temperature for a period of approximately 15 minutes, and then heated to a temperature of 37° C. for a period of at least 15 minutes."}, "[11]": {"assay": "Solubility in sterile water and 0.9% sodium chloride solution, pH 7.15 (tyndall effect)", "format": "physicochemical", "details": "water and 0.9% nacl, read-out: concentrations at which soluble", "protocol": "1 ml of 0.9% sodium chloride solution was then distributed in each of a second set of six sterilized 10 ml vials. The 0.9% sodium chloride solution was obtained by dissolving 9 mg of USP grade sodium chloride in sterile HPLC grade water using an agitator."}, "[12]": {"test_system": "Fischer rats", "assay": "Protection against cisplatin induced nephrotoxicity in Fischer rats (day 5 serum creatinine and BUN)", "format": "in vivo", "protocol": "FIG. 1. Serum Creatinine Values on Day 5 Post Treatment with i.v. Cisplatin (6 mg/kg) With or Without Increasing Doses of i.v. 2,2'-Dithio-Bis-Ethane Sulfonate (BNP7787).\nFIG. 2. Serum BUN (Blood Urea Nitrogen) Values on Day 5 Post Treatment with i.v. Cisplatin (6 mg/kg) With or Without Increasing Doses of i.v. 2,2'-Dithio-Bis-Ethane Sulfonate (BNP7787).\nas §1"}, "[13]": {"details": "BNP7787 1000 mg/kg i.v. with cisplatin 6 mg/kg and 9 mg/kg"}, "[14]": {"details": "BNP7787 37 mg/kg with cisplatin 6 mg/kg"}, "[15]": {"details": "BNP7787 333 mg/kg with cisplatin 6 mg/kg"}, "[16]": {"details": "BNP7787 1,000 mg/kg with cisplatin 6 mg/kg"}},
  "data": [
    {"smiles": "O=S(=O)([O-])CCS.[Na+]", "values": [
      {"measurement": "protection of kidneys from renal damage", "setting": "[1]; low doses of mesna", "result": "only partially protected"},
      {"measurement": "prevention of renal damage", "setting": "[1]; per os mesna", "result": "complete prevention of renal damage"},
      {"measurement": "administered mesna dose found in the urine in the form of mesna (reactive thiol)", "setting": "[2]", "result": "approximately 45%"},
      {"measurement": "dose appearing as thiol groups in the urine", "setting": "[3]; iv, 20 mg/kg", "result": "about 48%"},
      {"measurement": "dose excreted in the urine as reactive thiol groups", "setting": "[3]; po", "result": "approximately 52%"},
      {"measurement": "minimum concentration presumed to still be protective", "setting": "[3]", "result": 100, "unit": "µg/mL"},
      {"measurement": "administered dose recovered in the urine", "setting": "[4]", "result": "over 80%"}
    ]},
    {"smiles": "N.N.[Cl][Pt][Cl]", "note": "[cisplatin, cis-diammine dichloro platinum, reference compound]", "values": [
      {"measurement": "median tumor weight at maximum reduction (from 3,000 mg)", "setting": "[5]; cisplatin only 6 mg/kg i.v.", "result": 700, "unit": "mg"},
      {"measurement": "median tumor weight at maximum reduction (from 3,000 mg)", "setting": "[5]; cisplatin only 9 mg/kg i.v.", "result": 500, "unit": "mg"},
      {"measurement": "loss of body weight", "setting": "[6]; cisplatin alone, 6 mg/kg and 9 mg/kg, at 6 days", "result": "up to 8%"},
      {"measurement": "mean day 5 WBC", "setting": "[7]; cisplatin only 6 mg/kg", "result": "approximately 4,800"},
      {"measurement": "reduction in day 5 mean WBC from the untreated control group", "setting": "[7]; cisplatin only 6 mg/kg", "result": 32, "unit": "%"}
    ]},
    {"smiles": "O=S(O)(O)=S", "note": "[thiosulfates, sodium thiosulfate]", "values": [
      {"measurement": "increase of cisplatin dose per meter square that could be administered intraperitoneally", "setting": "[8]; thiosulfates by intravenous infusion", "result": "more than two fold"},
      {"measurement": "renal toxicity of intraperitoneal cisplatin", "setting": "[8]; thiosulfates by the intravenous route", "result": "renal toxicity could be prevented"}
    ]},
    {"smiles": "O=S(=O)([O-])CCSSCCS(=O)(=O)[O-].[Na+].[Na+]", "values": [
      {"measurement": "potentiation of cisplatin antitumor activity", "setting": "[5]; BNP7787 1000 mg/kg i.v. with cisplatin 6 mg/kg or 9 mg/kg", "result": "potentiation of cisplatin antitumor activity"},
      {"measurement": "intrinsic antitumor activity", "setting": "[5]; BNP7787 without cisplatin", "result": "lacks intrinsic antitumor activity"},
      {"measurement": "median tumor weight at maximum reduction (from 3,000 mg)", "setting": "[5]; cisplatin 6 mg/kg immediately followed by BNP7787 1,000 mg/kg i.v.", "result": "less than 300 mg"},
      {"measurement": "median tumor weight at maximum reduction (from 3,000 mg)", "setting": "[5]; cisplatin 9 mg/kg immediately followed by BNP7787 1,000 mg/kg i.v.", "result": "< 100", "unit": "mg"},
      {"measurement": "effect on antitumor activity of cisplatin (abrogation)", "setting": "[5]; substantially contemporaneous administration with cisplatin", "result": "does not abrogate the antitumor activity of cisplatin"},
      {"measurement": "mean weights compared with all other treatment groups", "setting": "[6]; [13]", "result": "greater mean weights than all other treatment groups"},
      {"measurement": "protection against renal damage as measured by weight loss", "setting": "[6]; [13]", "result": "clearly protective against renal damage"},
      {"measurement": "mean day 5 WBC", "setting": "[7]; [14]", "result": "~4,500"},
      {"measurement": "reduction in day 5 mean WBC from the untreated control group", "setting": "[7]; [14]", "result": 36, "unit": "%"},
      {"measurement": "mean day 5 WBC", "setting": "[7]; [15]", "result": "approximately 6,800"},
      {"measurement": "deviation of mean WBC from untreated controls", "setting": "[7]; [15]", "result": "≤ 15", "unit": "%"},
      {"measurement": "mean day 5 WBC", "setting": "[7]; [16]", "result": "~6,200"},
      {"measurement": "deviation of mean WBC from untreated controls", "setting": "[7]; [16]", "result": "≤ 15", "unit": "%"},
      {"measurement": "protective effect against cisplatin induced myelosuppression (WBC)", "setting": "[7]; escalating BNP7787 doses with cisplatin 6 mg/kg", "result": "dose-dependent protective effect"},
      {"measurement": "change in proton spectrum on heating", "setting": "[9]; pH 1.5, 100 degrees Celsius, 10 minutes", "result": "No change in the proton spectrum"},
      {"measurement": "pH range in which stable", "setting": "[9]; room temperature, 24 hours, listed as 2,2'-dithio-bis-ethane sulfonate", "result": "1.0-11.0"},
      {"measurement": "solubility", "setting": "[10]", "result": "10.5 to 102", "unit": "mg/mL"},
      {"measurement": "solubility", "setting": "[11]", "result": "100 to 320", "unit": "mg/mL"},
      {"measurement": "nephrotoxicity (plasma BUN and creatinine levels and histopathology) relative to cisplatin only", "setting": "[12]; BNP7787 37 mg/kg with cisplatin 6 mg/kg i.v.", "result": "slight increase in nephrotoxicity"},
      {"measurement": "renal protection (day 5 creatinine and BUN)", "setting": "[12]; BNP7787 333 mg/kg i.v. with cisplatin 6 mg/kg i.v.", "result": 100, "unit": "%"},
      {"measurement": "renal protection (day 5 creatinine and BUN)", "setting": "[12]; BNP7787 1000 mg/kg i.v. with cisplatin 6 mg/kg i.v.", "result": 100, "unit": "%"},
      {"measurement": "dose-response effect in renal protection", "setting": "[12]; escalating i.v. doses up to 1000 mg/kg with cisplatin 6 mg/kg", "result": "clear dose-response effect"}
    ]}
  ]
}
